Results: patent publication US8247377B2, “Non-steroidal glucocorticoid inhibitors and their use in treating inflammation, allergy and auto-immune conditions” (Glaxo Group Limited, priority 2006, dated 2012)

What follows are molecules tested against T1, glucocorticoid receptor (Homo sapiens, UniProt P04150) (assay: Glucocorticoid receptor binding assay (fluorescence polarisation)). Details: competition with Alexa 555 fluorescently-labelled dexamethasone derivative, full length glucocorticoid receptor; read-out: glucocorticoid binding pIC50 (converted).
T1 construct: a partially purified full length glucocorticoid receptor
T1 sequence (P04150 1-777): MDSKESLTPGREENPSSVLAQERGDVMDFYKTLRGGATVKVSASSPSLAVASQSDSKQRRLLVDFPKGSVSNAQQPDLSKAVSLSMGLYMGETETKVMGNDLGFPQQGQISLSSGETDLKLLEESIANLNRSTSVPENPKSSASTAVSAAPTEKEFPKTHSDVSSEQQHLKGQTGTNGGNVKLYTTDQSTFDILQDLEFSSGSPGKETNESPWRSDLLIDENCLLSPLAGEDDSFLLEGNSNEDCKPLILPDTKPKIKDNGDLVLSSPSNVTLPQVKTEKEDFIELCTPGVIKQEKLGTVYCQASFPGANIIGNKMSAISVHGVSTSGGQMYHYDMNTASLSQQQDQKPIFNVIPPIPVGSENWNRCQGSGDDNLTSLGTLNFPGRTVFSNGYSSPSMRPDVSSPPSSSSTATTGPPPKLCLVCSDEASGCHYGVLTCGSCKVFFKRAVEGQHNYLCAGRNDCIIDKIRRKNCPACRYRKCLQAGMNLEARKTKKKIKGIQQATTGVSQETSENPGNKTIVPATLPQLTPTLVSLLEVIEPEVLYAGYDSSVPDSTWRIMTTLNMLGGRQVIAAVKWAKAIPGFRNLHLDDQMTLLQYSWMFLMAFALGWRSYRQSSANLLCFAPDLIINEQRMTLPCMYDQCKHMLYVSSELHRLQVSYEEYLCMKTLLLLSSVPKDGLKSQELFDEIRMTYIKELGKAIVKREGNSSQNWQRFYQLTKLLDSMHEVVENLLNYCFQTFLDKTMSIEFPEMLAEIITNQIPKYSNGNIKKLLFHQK
Method in brief: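 Compounds in DMSO incubated with fluorescent dexamethasone and partially purified full-length GR plus stabilising buffer components, 2 hrs at room temperature in the dark. Displacement read as decrease in fluorescence polarisation; pIC50 estimated from dose-response curves.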

SMILES	IC50 [nM]
Nc1c(C(=O)NCC(O)(CNC(=O)c2c(Cl)cccc2Br)C(F)(F)F)cnn1-c1ccc(F)cc1 (racemic) [Example 12 (racemic), 5-Amino-N-[2-({[(2-bromo-6-chlorophenyl)carbonyl]amino}methyl)-3,3,3-trifluoro-2-hydroxypropyl]-1-(4-fluorophenyl)-1H-pyrazole-4-carboxamide]	≤ 316
Nc1c(C(=O)NCC(O)(CNC(=O)c2c(F)cccc2Br)C(F)(F)F)cnn1-c1ccc(F)cc1 (racemic) [Example 13 (racemic), 5-Amino-N-[2-({[(2-bromo-6-fluorophenyl)carbonyl]amino}methyl)-3,3,3-trifluoro-2-hydroxypropyl]-1-(4-fluorophenyl)-1H-pyrazole-4-carboxamide]	≤ 316
Nc1c(C(=O)NCC(O)(CNC(=O)c2c(Cl)cccc2OC(F)F)C(F)(F)F)cnn1-c1ccc(F)cc1 (racemic) [Example 14 (racemic), 5-Amino-N-(2-{[({2-chloro-6-[(difluoromethyl)oxy]phenyl}carbonyl)amino]methyl}-3,3,3-trifluoro-2-hydroxypropyl)-1-(4-fluorophenyl)-1H-pyrazole-4-carboxamide]	≤ 316
Nc1c(C(=O)NCC(O)(CNC(=O)c2c(C(F)(F)F)cccc2C(F)(F)F)C(F)(F)F)cnn1-c1ccc(F)cc1 (racemic) [Example 15 (racemic), 5-amino-N-{2-[({[2,6-bis(trifluoromethyl)phenyl]carbonyl}amino)methyl]-3,3,3-trifluoro-2-hydroxypropyl}-1-(4-fluorophenyl)-1H-pyrazole-4-carboxamide]	≤ 316
CN(CC(O)(CNC(=O)c1cnn(-c2ccc(F)cc2)c1N)C(F)(F)F)C(=O)c1c(Cl)cccc1Br (racemic) [Example 16 (racemic), 5-amino-N-(2-{[[(2-bromo-6-chlorophenyl)carbonyl](methyl)amino]methyl}-3,3,3-trifluoro-2-hydroxypropyl)-1-(4-fluorophenyl)-1H-pyrazole-4-carboxamide]	≤ 316
Nc1c(C(=O)NCC(O)(CN(CCF)C(=O)c2c(F)cccc2F)C(F)(F)F)cnn1-c1ccc(F)cc1 (racemic) [Example 17 (racemic), 5-amino-N-(2-{[[(2,6-difluorophenyl)carbonyl](2-fluoroethyl)amino]methyl}-3,3,3-trifluoro-2-hydroxypropyl)-1-(4-fluorophenyl)-1H-pyrazole-4-carboxamide]	≤ 316
Nc1c(C(=O)NCC(O)(CN(CCF)C(=O)c2c(F)cccc2C(F)(F)F)C(F)(F)F)cnn1-c1ccc(F)cc1 (racemic) [Example 18 (racemic), 5-amino-1-(4-fluorophenyl)-N-{3,3,3-trifluoro-2-[((2-fluoroethyl){[2-fluoro-6-(trifluoromethyl)phenyl]carbonyl}amino)methyl]-2-hydroxypropyl}-1H-pyrazole-4-carboxamide]	≤ 316
Nc1c(C(=O)NCC(O)(CNC(=O)c2c(F)cccc2C(F)(F)F)C(F)(F)F)cnn1-c1ccc(F)cc1 (racemic) [Example 19 (racemic), 5-amino-1-(4-fluorophenyl)-N-{3,3,3-trifluoro-2-[({[2-fluoro-6-(trifluoromethyl)phenyl]carbonyl}amino)methyl]-2-hydroxypropyl}-1H-pyrazole-4-carboxamide]	≤ 316
CN(CC(O)(CNC(=O)c1cnn(-c2ccc(F)cc2)c1N)C(F)(F)F)C(=O)c1c(F)cccc1C(F)(F)F (racemic) [Example 21 (racemic), 5-amino-1-(4-fluorophenyl)-N-(3,3,3-trifluoro-2-{[{[2-fluoro-6-(trifluoromethyl)phenyl]carbonyl}(methyl)amino]methyl}-2-hydroxypropyl)-1H-pyrazole-4-carboxamide]	≤ 316
CN(CC(O)(CNC(=O)c1cnn(-c2ccc(F)cc2)c1N)C(F)(F)F)C(=O)c1c(C(F)(F)F)cccc1C(F)(F)F (racemic) [Example 22 (racemic), 5-amino-N-(2-{[{[2,6-bis(trifluoromethyl)phenyl]carbonyl}(methyl)amino]methyl}-3,3,3-trifluoro-2-hydroxypropyl)-1-(4-fluorophenyl)-1H-pyrazole-4-carboxamide]	≤ 316
